One series concerns cluster headaches. Briefly: Clinical cases: treatment of cluster headaches. Format: in vivo, human patient. The note with it: 2nd series, 4th case; 50 mg nicotinamide alone orally twice a day.
Series [1] relates to classical migraine (migraine with an aura). Briefly: Clinical cases: treatment of classical migraine (migraine with an aura). Format: in vivo, human patient. The note with it: 2nd series, 50 mg nicotinamide alone orally twice a day. How it is done: 1st case—a person with a classical migraine (or a migraine with an aura). The patient had been suffering from classical migraine symptoms for 30 years. Initially, the symptoms were located in the right temporal region and later spread to the top and to the left temple with characteristic pulsations, accompanied by photophobia, vertigo and buzzing ears. The attacks lasted for about 10 days on a monthly basis.
Later, during a migraine attack, the patient started a treatment based on 50 mg of nicotinamide+2.5 mg of riboflavin taken orally twice a day. […] During this period the patient had completely suspended the old therapy. They continued with the new treatment, according to the present invention, for another 7 days to then temporarily suspend it. Later on, the dosage was halved for 10 days a month for preventive purposes.
1st case—person one with a classical migraine (or migraine with an aura). The patient had been suffering from classical migraine symptoms for 15 years and had photophobia, flashing scotoma and vertigo. […] The symptoms were located on the right side, occurred about twice a month and lasted a week, on average. When suffering from migraines the patient could not perform any activity. The acute episodes were preceded by photophobia, buzzing ears and visual disorders (scotoma). […]

Series [2] deals with primary headaches (common, classical, complicated migraine, cluster headache). Description: Clinical experimentation in primary headache forms, overall statements. The note with it: single agent; for effectiveness in combating the forms of headache considered: systemic administration at the typical dosage used for pellagra.
For series [3], the system named is common migraine (migraine without an aura). Description: Clinical cases: treatment of common migraine (migraine without an aura). It counts as in vivo, human patient. The note with it: 2nd series, 3rd case; 50 mg nicotinamide alone orally twice a day.
In the next series the test system is complicated migraine. Briefly: Clinical cases: treatment of complicated migraine. The settings on record: 2nd series, 2nd case; 50 mg nicotinamide alone orally twice a day. Format: in vivo, human patient.
The subject of series [4] is primary headaches (common, classical, complicated migraine, cluster headache). The settings on record: human, in vivo.

Read-outs that look alike come from different tables or passages of the source.

Experimental for cluster headaches: 4th case—a person with cluster headaches. The patient had been suffering from nocturnal headaches for about 15 years. The headaches started about 3 hours after sleep onset and presented a left orbital pain, lachrymation, nasal congestion and an oedema of the left cheek.
They continued with the therapy for another 15 days and then the dosage was halved and treatment continued for 15 days a month.
4th case—a person with cluster headaches. The patient suffered from cluster headaches that made them wake up in the night with lacerating head pains. The pains were accompanied by lachrymation and rhinorrhea.

Take `NC(=O)c1cccnc1` [nicotinamide]: the “time until the headaches attenuated” value with cluster headaches lay in the range of 5 to 6 days. Also, the “time until migraine symptoms attenuated” value in series [1] (1st case one) turned out to be 5 days. Also, in series [1] (1st case), the “complete disappearance of migraine symptoms” value is on record as “did not disappear completely” and the “time until the migraine returned (lesser intensity) under continued treatment” value is “about 10 days”. Further, the “effectiveness in combating the forms of headache considered” value in series [2] was “not very effective”. Besides, the “secondary reactions reported for high doses” value in series [2] (systemic administration in doses well below those for hypercholesterolemy) was “does not lead to the secondary reactions”. Besides, the “time until the migraine was partially attenuated” value in series [3] was “about 5 days”. In the series with complicated migraine, the “time until the problem was attenuated” value came to 6 days.

`O=C(O)c1cccnc1` [nicotinic acid, 3-pyridincarboxylic acid]: in series [2], the “effectiveness in combating the forms of headache considered” value is recorded as “not very effective”. Also, the “secondary reactions reported for high doses” value in series [4] is recorded as “does not lead to the secondary reactions”.

Source of the values: patent publication US7456291B2, “Use of a vitamin combination for the treatment of primary headaches” (priority 2000, dated 2008).
